Data from patent US8541418B2, “Inhibitors of polo-like kinase” (Elan Pharmaceutical, Inc., priority 2009, dated 2013).

Experiments:
Format in all cases: biochemical
PLK1 = PLK1 (Homo sapiens, UniProt P53350); assay: PLK TR-FRET peptide assay, PLK1; settings: GST-PLK1, 60 min reaction
PLK3 = PLK3 (Homo sapiens, UniProt Q9H4B4); assay: PLK TR-FRET peptide assay, PLK3; settings: GST-PLK3, 15 min reaction, read-out: Plk3 IC50
PLK2 = PLK2 (Homo sapiens, UniProt Q9NYY3); assay: PLK TR-FRET peptide assay, PLK2; settings: for IC50: PLK TR-FRET peptide assay, GST-PLK2, 60 min reaction, read-out: Plk2 IC50
Sequence of PLK2 (Q9NYY3 whole entry): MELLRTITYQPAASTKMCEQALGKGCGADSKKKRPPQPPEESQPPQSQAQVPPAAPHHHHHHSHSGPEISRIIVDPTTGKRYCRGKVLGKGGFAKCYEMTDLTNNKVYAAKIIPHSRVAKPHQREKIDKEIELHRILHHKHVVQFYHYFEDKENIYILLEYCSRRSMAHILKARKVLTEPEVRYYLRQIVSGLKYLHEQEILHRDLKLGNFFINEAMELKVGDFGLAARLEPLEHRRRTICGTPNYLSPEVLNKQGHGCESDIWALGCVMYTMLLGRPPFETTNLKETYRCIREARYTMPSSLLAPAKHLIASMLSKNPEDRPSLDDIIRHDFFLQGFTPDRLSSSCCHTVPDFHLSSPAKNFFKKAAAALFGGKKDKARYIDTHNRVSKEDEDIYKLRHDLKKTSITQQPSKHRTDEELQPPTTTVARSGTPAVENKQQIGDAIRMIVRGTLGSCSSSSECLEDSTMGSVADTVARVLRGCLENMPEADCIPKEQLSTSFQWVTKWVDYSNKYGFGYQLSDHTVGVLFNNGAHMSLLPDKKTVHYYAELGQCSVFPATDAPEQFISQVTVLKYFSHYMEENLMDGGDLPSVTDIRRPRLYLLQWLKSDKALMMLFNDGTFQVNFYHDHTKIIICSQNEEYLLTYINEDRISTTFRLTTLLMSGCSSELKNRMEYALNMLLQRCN

Sequence of PLK3 (Q9H4B4 whole entry): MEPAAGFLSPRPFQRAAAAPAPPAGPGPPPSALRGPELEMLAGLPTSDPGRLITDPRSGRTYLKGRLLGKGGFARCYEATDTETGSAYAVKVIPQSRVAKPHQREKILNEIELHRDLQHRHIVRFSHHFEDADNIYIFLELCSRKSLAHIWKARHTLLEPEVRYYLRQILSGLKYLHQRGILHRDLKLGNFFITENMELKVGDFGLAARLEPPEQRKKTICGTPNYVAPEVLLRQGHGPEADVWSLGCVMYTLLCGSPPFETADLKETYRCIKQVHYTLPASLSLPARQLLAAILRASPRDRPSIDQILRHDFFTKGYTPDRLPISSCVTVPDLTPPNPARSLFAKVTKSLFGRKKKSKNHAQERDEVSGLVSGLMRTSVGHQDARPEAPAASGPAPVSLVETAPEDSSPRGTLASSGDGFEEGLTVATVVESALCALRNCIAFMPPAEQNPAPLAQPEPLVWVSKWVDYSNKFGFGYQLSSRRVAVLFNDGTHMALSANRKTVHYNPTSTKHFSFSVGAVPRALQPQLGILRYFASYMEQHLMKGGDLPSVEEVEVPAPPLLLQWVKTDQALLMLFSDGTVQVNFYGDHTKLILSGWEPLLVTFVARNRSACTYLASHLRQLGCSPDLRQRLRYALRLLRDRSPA
Sequence of PLK1 (P53350 whole entry): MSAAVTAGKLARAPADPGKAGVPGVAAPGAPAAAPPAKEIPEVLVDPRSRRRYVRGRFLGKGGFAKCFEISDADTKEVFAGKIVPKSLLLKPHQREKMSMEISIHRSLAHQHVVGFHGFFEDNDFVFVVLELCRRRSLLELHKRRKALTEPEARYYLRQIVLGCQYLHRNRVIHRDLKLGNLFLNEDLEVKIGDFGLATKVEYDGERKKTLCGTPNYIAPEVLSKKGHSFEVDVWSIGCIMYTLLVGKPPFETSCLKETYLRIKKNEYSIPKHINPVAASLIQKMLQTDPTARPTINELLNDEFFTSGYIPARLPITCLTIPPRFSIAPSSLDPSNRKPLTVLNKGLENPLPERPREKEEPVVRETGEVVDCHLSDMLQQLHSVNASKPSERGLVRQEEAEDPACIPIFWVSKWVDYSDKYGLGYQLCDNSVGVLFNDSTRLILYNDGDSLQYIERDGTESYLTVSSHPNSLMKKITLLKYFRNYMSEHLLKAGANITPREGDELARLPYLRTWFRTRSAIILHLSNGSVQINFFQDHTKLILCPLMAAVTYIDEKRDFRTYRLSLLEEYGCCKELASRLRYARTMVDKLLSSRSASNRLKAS

CC[C@@H]1C(=O)N(C)c2cnc(-c3cncnc3-c3ccc(C(F)(F)F)cc3)nc2N1C(C)C [Example 168, (R)-7-ethyl-8-isopropyl-5-methyl-2-(4-(4-(trifluoromethyl)phenyl)pyrimidin-5-yl)-7,8-dihydropteridin-6(5H)-one]
IC50 (PLK1): 10 to 50 µM
IC50 (PLK3): > 50 µM
IC50 (PLK2): 10 to 50 µM

[2H]C([2H])([2H])N1C(=O)C(C([2H])([2H])C([2H])([2H])[2H])N(C([2H])(C([2H])([2H])[2H])C([2H])([2H])[2H])c2nc(-n3ccnc3-c3ccc(F)c(F)c3)ncc21 (stereo not shown) [Example 169, 2-(2-(3,4-difluorophenyl)-1H-imidazol-1-yl)-7-perdeuteroethyl-8-perdeuteroisopropyl-5-trideuteromethyl-7,8-dihydropteridin-6(5H)-one]
IC50 (PLK1): 1 to 10 µM
IC50 (PLK3): 10 to 50 µM
IC50 (PLK2): < 1 µM

[2H]C([2H])([2H])N1C(=O)C(C([2H])([2H])C([2H])([2H])[2H])N(C([2H])(C([2H])([2H])[2H])C([2H])([2H])[2H])c2nc(-n3ccnc3-c3ccc(OC(F)(F)F)cc3)ncc21 (stereo not shown) [Example 170, 7-perdeuteroethyl-8-perdeuteroisopropyl-5-trideuteromethyl-2-(2-(4-(trifluoromethoxy)phenyl)-1H-imidazol-1-yl)-7,8-dihydropteridin-6(5H)-one]
IC50 (PLK1): 10 to 50 µM
IC50 (PLK3): > 50 µM
IC50 (PLK2): < 1 µM

CC[C@@H]1C(=O)N(C)c2cnc(-n3ccnc3-c3ccc(C(F)(F)F)cc3)nc2N1C1CCC1 [Example 171, (R)-8-cyclobutyl-7-ethyl-5-methyl-2-(2-(4-(trifluoromethyl)phenyl)-1H-imidazol-1-yl)-7,8-dihydropteridin-6(5H)-one]
IC50 (PLK1): 10 to 50 µM
IC50 (PLK3): > 50 µM
IC50 (PLK2): < 1 µM

[2H]C([2H])([2H])N1C(=O)C(C([2H])([2H])C([2H])([2H])[2H])N(C([2H])(C([2H])([2H])[2H])C([2H])([2H])[2H])c2nc(-n3ccnc3-c3cccc(C(F)(F)F)c3)ncc21 (stereo not shown) [Example 172, 7-ethyl-8-isopropyl-5-methyl-2-(2-(3-(trifluoromethyl)phenyl)-1H-imidazol-1-yl)-7,8-dihydropteridin-6(5H)-one]
IC50 (PLK1): 1 to 10 µM
IC50 (PLK3): > 50 µM
IC50 (PLK2): < 1 µM

CC[C@@H]1C(=O)N(C)c2cnc(-c3cnoc3-c3ccc(F)cc3)nc2N1C(C)C [Example 173, (R)-7-ethyl-2-(5-(4-fluorophenyl)isoxazol-4-yl)-8-isopropyl-5-methyl-7,8-dihydropteridin-6(5H)-one]
IC50 (PLK1): 1 to 10 µM
IC50 (PLK3): 10 to 50 µM
IC50 (PLK2): < 1 µM

CC[C@@H]1C(=O)N(C)c2cnc(-n3ccnc3-c3cc(F)cc(C(F)(F)F)c3)nc2N1C1CCC1 [Example 174, (R)-8-cyclobutyl-7-ethyl-2-(2-(3-fluoro-5-(trifluoromethyl)phenyl)-1H-imidazol-1-yl)-5-methyl-7,8-dihydropteridin-6(5H)-one]
IC50 (PLK1): 1 to 10 µM
IC50 (PLK3): 10 to 50 µM
IC50 (PLK2): < 1 µM

CC[C@@H]1C(=O)N(C)c2cnc(-c3nccnc3-c3ccc(C(F)(F)F)cc3)nc2N1C(C)C [Example 175, (R)-7-ethyl-8-isopropyl-5-methyl-2-(3-(4-(trifluoromethyl)phenyl)pyrazin-2-yl)-7,8-dihydropteridin-6(5H)-one]
IC50 (PLK1): 1 to 10 µM
IC50 (PLK3): 10 to 50 µM
IC50 (PLK2): 1 to 10 µM

CC[C@@H]1C(=O)N(C)c2cnc(-c3nccnc3-c3ccc(F)cc3)nc2N1C(C)C [Example 177, (R)-7-ethyl-2-(3-(4-fluorophenyl)pyrazin-2-yl)-8-isopropyl-5-methyl-7,8-dihydropteridin-6(5H)-one]
IC50 (PLK1): 1 to 10 µM
IC50 (PLK3): 1 to 10 µM
IC50 (PLK2): < 1 µM

[2H]C([2H])([2H])N1C(=O)[C@H](C([2H])([2H])C([2H])([2H])[2H])N(C([2H])(C([2H])([2H])[2H])C([2H])([2H])[2H])c2nc(-n3ccnc3-c3cc(F)cc(F)c3)ncc21 [Example 178, (S)-2-(2-(3,5-difluorophenyl)-1H-imidazol-1-yl)-7-perdeuteroethyl-8-perdeuteroisopropyl-5-trideuteromethyl-7,8-dihydropteridin-6(5H)-one]
IC50 (PLK1): > 50 µM
IC50 (PLK3): > 50 µM
IC50 (PLK2): 10 to 50 µM

[2H]C([2H])([2H])N1C(=O)[C@@H](C([2H])([2H])C([2H])([2H])[2H])N(C([2H])(C([2H])([2H])[2H])C([2H])([2H])[2H])c2nc(-n3ccnc3-c3cc(F)cc(F)c3)ncc21 [Example 179, (R)-2-(2-(3,5-difluorophenyl)-1H-imidazol-1-yl)-7-perdeuteroethyl-8-perdeuteroisopropyl-5-trideuteromethyl-7,8-dihydropteridin-6(5H)-one]
IC50 (PLK1): < 1 µM
IC50 (PLK3): 1 to 10 µM
IC50 (PLK2): < 1 µM

CC[C@@]12CCCN1c1nc(-n3ccnc3-c3cc(Cl)cc(Cl)c3)ncc1N(C)C2=O [Example 184, (S)-2-(2-(3,5-dichlorophenyl)-1H-imidazol-1-yl)-6a-ethyl-5-methyl-6a,7,8,9-tetrahydropyrrolo[2,1-h]pteridin-6(5H)-one]
IC50 (PLK1): 10 to 50 µM
IC50 (PLK3): 10 to 50 µM
IC50 (PLK2): < 1 µM

CC[C@@H]1C(=O)N(C)c2cnc(-n3ccnc3-c3cc(Cl)cc(Cl)c3)nc2N1C(C)C [Example 185, (R)-2-(2-(3,5-dichlorophenyl)-1H-imidazol-1-yl)-7-ethyl-8-isopropyl-5-methyl-7,8-dihydropteridin-6(5H)-one]
IC50 (PLK1): 1 to 10 µM
IC50 (PLK3): 1 to 10 µM
IC50 (PLK2): < 1 µM

CC[C@@H]1C(=O)N(C)c2cnc(-n3ccnc3-c3ccc(F)c(Cl)c3)nc2N1C(C)C [Example 186, (R)-2-(2-(3-chloro-4-fluorophenyl)-1H-imidazol-1-yl)-7-ethyl-8-isopropyl-5-methyl-7,8-dihydropteridin-6(5H)-one]
IC50 (PLK1): 1 to 10 µM
IC50 (PLK3): 1 to 10 µM
IC50 (PLK2): < 1 µM

CC[C@@H]1C(=O)N(C)c2cnc(-c3cnoc3-c3nccs3)nc2N1C(C)C [Example 187, (R)-7-ethyl-8-isopropyl-5-methyl-2-(5-(thiazol-2-yl)isoxazol-4-yl)-7,8-dihydropteridin-6(5H)-one]
IC50 (PLK1): 10 to 50 µM
IC50 (PLK3): 10 to 50 µM
IC50 (PLK2): 10 to 50 µM

CC[C@@H]1C(=O)N(C)c2cnc(-n3ccnc3-c3ccc(F)c(F)c3)nc2N1C1CCOC1 (stereo partly drawn) [Example 191, (7R)-2-(2-(3,4-difluorophenyl)-1H-imidazol-1-yl)-7-ethyl-5-methyl-8-(tetrahydrofuran-3-yl)-7,8-dihydropteridin-6(5H)-one]
IC50 (PLK1): 1 to 10 µM
IC50 (PLK3): 10 to 50 µM
IC50 (PLK2): < 1 µM

CC[C@@]12CCCN1c1nc(-n3nccc3-c3ccccc3)ncc1N(C)C2=O [Example 193, (S)-6a-ethyl-5-methyl-2-(5-phenyl-1H-pyrazol-1-yl)-6a,7,8,9-tetrahydropyrrolo[2,1-h]pteridin-6(5H)-one]
IC50 (PLK1): 1 to 10 µM
IC50 (PLK3): 1 to 10 µM
IC50 (PLK2): 1 to 10 µM

CC[C@@H]1C(=O)N(C)c2cnc(-n3ccnc3-c3cccc(F)c3)nc2N1C1CC(F)(F)C1 [Example 194, (R)-8-(3,3-difluorocyclobutyl)-7-ethyl-2-(2-(3-fluorophenyl)-1H-imidazol-1-yl)-5-methyl-7,8-dihydropteridin-6(5H)-one]
IC50 (PLK1): < 1 µM
IC50 (PLK3): 10 to 50 µM
IC50 (PLK2): < 1 µM

CC[C@@H]1C(=O)N(C)c2cnc(-n3ccnc3-c3nccc4ccccc34)nc2N1C(C)C [Example 196, (R)-7-ethyl-8-isopropyl-2-(2-(isoquinolin-1-yl)-1H-imidazol-1-yl)-5-methyl-7,8-dihydropteridin-6(5H)-one]
IC50 (PLK1): 10 to 50 µM
IC50 (PLK3): > 50 µM
IC50 (PLK2): 1 to 10 µM

CC[C@@H]1C(=O)N(C)c2cnc(-c3cncnc3-c3nccs3)nc2N1C(C)C [Example 197, (R)-7-ethyl-8-isopropyl-5-methyl-2-(4-(thiazol-2-yl)pyrimidin-5-yl)-7,8-dihydropteridin-6(5H)-one]
IC50 (PLK1): 1 to 10 µM
IC50 (PLK3): 1 to 10 µM
IC50 (PLK2): 1 to 10 µM

CC[C@@H]1C(=O)N(C)c2cnc(-n3ccnc3-c3cc(Cl)cc(Cl)c3)nc2N1C1CCC1 [Example 198, (R)-8-cyclobutyl-2-(2-(3,5-dichlorophenyl)-1H-imidazol-1-yl)-7-ethyl-5-methyl-7,8-dihydropteridin-6(5H)-one]
IC50 (PLK1): 1 to 10 µM
IC50 (PLK3): 1 to 10 µM
IC50 (PLK2): < 1 µM

[2H]C([2H])([2H])N1C(=O)[C@H](C([2H])([2H])C([2H])([2H])[2H])N(C([2H])(C([2H])([2H])[2H])C([2H])([2H])[2H])c2nc(-n3ccnc3-c3ccc(F)cc3)ncc21 [Example 199, (S)-7-perdeuteroethyl-2-(2-(4-fluorophenyl)-1H-imidazol-1-yl)-8-perdeuteroisopropyl-5-trideuteromethyl-7,8-dihydropteridin-6(5H)-one]
IC50 (PLK1): 10 to 50 µM
IC50 (PLK3): > 50 µM
IC50 (PLK2): 1 to 10 µM

[2H]C([2H])([2H])N1C(=O)[C@@H](C([2H])([2H])C([2H])([2H])[2H])N(C([2H])(C([2H])([2H])[2H])C([2H])([2H])[2H])c2nc(-n3ccnc3-c3ccc(F)cc3)ncc21 [Example 200, (R)-7-perdeuteroethyl-2-(2-(4-fluorophenyl)-1H-imidazol-1-yl)-8-perdeuteroisopropyl-5-trideuteromethyl-7,8-dihydropteridin-6(5H)-one]
IC50 (PLK1): 1 to 10 µM
IC50 (PLK3): 1 to 10 µM
IC50 (PLK2): < 1 µM
relative PLK2 activity of the enantiomers (PLK2; compared with the opposite enantiomer): more active compound

[2H]C([2H])([2H])N1C(=O)[C@H](C([2H])([2H])C([2H])([2H])[2H])N(C([2H])(C([2H])([2H])[2H])C([2H])([2H])[2H])c2nc(-n3ccnc3-c3cccc(F)c3)ncc21 [Example 201, (S)-7-perdeuteroethyl-2-(2-(3-fluorophenyl)-1H-imidazol-1-yl)-8-perdeuteroisopropyl-5-trideuteromethyl-7,8-dihydropteridin-6(5H)-one]
IC50 (PLK1): 10 to 50 µM
IC50 (PLK3): > 50 µM
IC50 (PLK2): 1 to 10 µM
